# In patent publication US20170283453A1, “COFACTOR ANALOGUES FOR METHYLTRANSFERASES” (KATHOLIEKE UNIVERSITEIT LEUVEN, priority 2014, published 2017):
# Structures can show the parent of a compound that is named as a salt.
# Assays:
# [1] = test system: M.MpeI DNA methyltransferase; assay: Restriction protection assay after M.MpeI-directed DNA modification (agarose gel); format: biochemical; conditions: pUC19 DNA, Cutsmart buffer, 60° C., 1 hour; restriction enzyme HhaI 1 hour; Ethidium bromide
# Procedure: Cytosine DNA modification by M.MpeI DNA methyltransferase: […] DNA methyltransferase targets the two-base recognition sequence 5′-CG-3′ and modifies the underlined cytosine residue and was combined with (8-Azido-oct-2-ene)(5′-Deoxyadenosyl)-(L-Cysteine)sulfonium salt (see example 9 for preparation). The methyltransferase enzyme and cofactors were incubated with pUC19 DNA in “Cutsmart buffer” at 60° C. for 1 hour. To determine if protection occurred the DNA was incubated with the corresponding restriction enzyme (HhaI) for 1 hour. Afterwards, the remaining proteins were digested with Proteinase K. The DNA samples are then placed on an agarose gel and visualized with Ethidium bromide (FIG. 3).
# [2] = target: M.TaqI DNA methyltransferase (Thermus aquaticus, UniProt P14385); assay: Restriction protection assay after M.TaqI-directed DNA modification (agarose gel); format: biochemical; conditions: pUC19 DNA, Cutsmart buffer, 60° C., 1 hour; restriction enzyme TaqaI 1 hour; Ethidium bromide
# Procedure: Adenine-N6 DNA modification by M.TaqI DNA methyltransferase: […] DNA methyltransferase targets the four-base recognition sequence 5′-TCGA-3′ and modifies the underlined adenine residue at the N6-position and was combined with (6-Azido-hex-2-yne)(5′-Deoxyadenosyl)-(L-Cysteine)sulfonium salt (see example 9 for preparation). The methyltransferase enzyme and cofactors were incubated with pUC19 DNA in “Cutsmart buffer” at 60° C. for 1 hour. To determine if protection occurred the DNA was incubated with the corresponding restriction enzyme (TaqaI) for 1 hour. Afterwards, the remaining proteins were digested with Proteinase K. The DNA samples are then placed on an agarose gel and visualized with Ethidium bromide (FIG. 1).
# Adenine-N6 DNA modification by M.TaqI DNA methyltransferase: […] DNA methyltransferase targets the four-base recognition sequence 5′-TCGA-3′ and modifies the underlined adenine residue at the N6-position and was combined with Rhodamine sulfonium salt (see example 12 for preparation). The methyltransferase enzyme and cofactors were incubated with pUC19 DNA in “Cutsmart buffer” at 60° C. for 1 hour. To determine if protection occurred the DNA was incubated with the corresponding restriction enzyme (TaqaI) for 1 hour. […]
# plasmid DNA = assay: Super resolution microscopy of fluorescently labeled DNA; conditions: FIG. 5 panel C; DNA spin coated on poly-L-lysine coated cover slips
# Procedure: Adenine-N6 DNA modification by M.TaqI DNA methyltransferase: […] DNA methyltransferase targets the four-base recognition sequence 5′-TCGA-3′ and modifies the underlined adenine residue at the N6-position and was combined with Rhodamine sulfonium salt (see example 12 for preparation). The methyltransferase enzyme and cofactors were incubated with pUC19 DNA in “Cutsmart buffer” at 60° C. for 1 hour. To determine if protection occurred the DNA was incubated with the corresponding restriction enzyme (TaqaI) for 1 hour. Afterwards, the remaining proteins were digested with Proteinase K. DNA samples are then placed on an agarose gel and visualized with Ethidium bromide (FIG. 4).
# Fluorescent DNA was purified using DNA Cleaner & Concentrator 5 columns (Zymo Research), and the DNA was spin coated on poly-L-lysine coated cover slips and used directly for microscopy studies. (FIG. 5)
# Chain of M.TaqI DNA methyltransferase (P14385 whole entry): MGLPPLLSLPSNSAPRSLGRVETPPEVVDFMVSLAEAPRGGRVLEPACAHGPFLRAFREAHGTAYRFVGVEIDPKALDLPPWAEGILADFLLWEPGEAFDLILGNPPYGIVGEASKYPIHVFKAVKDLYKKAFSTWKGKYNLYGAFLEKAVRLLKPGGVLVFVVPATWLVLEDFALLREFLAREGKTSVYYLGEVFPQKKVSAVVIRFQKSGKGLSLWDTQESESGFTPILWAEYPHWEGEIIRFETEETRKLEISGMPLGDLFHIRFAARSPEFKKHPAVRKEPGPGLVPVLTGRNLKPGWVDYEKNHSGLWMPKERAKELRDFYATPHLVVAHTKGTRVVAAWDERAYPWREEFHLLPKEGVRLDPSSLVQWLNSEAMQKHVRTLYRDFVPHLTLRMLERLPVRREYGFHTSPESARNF
compound,measurement,setting,value
[N-]=[N+]=NCCCCCC=CC[S+](C[C@H](N)C(=O)O)C[C@H]1O[C@@H](n2cnc3c(N)ncnc32)[C@H](O)[C@@H]1O (stereo partly drawn) [(8-Azido-oct-2-ene)(5′-Deoxyadenosyl)-(L-Cysteine)sulfonium salt],Protection of DNA against cutting by restriction enzyme (band pattern on agarose gel),[1],"1 strong band, corresponding to uncut DNA"
[N-]=[N+]=NCCCC#CC[S+](C[C@H](N)C(=O)O)C[C@H]1O[C@@H](n2cnc3c(N)ncnc32)C(O)C1O (stereo partly drawn) [(6-Azido-hex-2-yne)(5′-Deoxyadenosyl)-(L-Cysteine)sulfonium Salt],Protection of DNA against cutting by restriction enzyme (band pattern on agarose gel),[2],"1 strong band, corresponding to uncut DNA"
CCN(CC)c1ccc2c(-c3ccccc3C(=O)N(C)CCC(=O)NCCCCC/C=C/C[S+](C[C@H](N)C(=O)O)C[C@H]3O[C@@H](n4cnc5c(N)ncnc54)[C@@H](O)C3O)c3ccc(=[N+](CC)CC)cc-3oc2c1 (stereo partly drawn) [Rhodamine sulfonium salt],Colocalization of the dye with a DNA intercalating dye (fluorescent DNA labeling),plasmid DNA,successful fluorescent DNA labeling
